What all share (test): DSF assay
Common to all, as to type: binding
Holding throughout (details): 20 µM compound
For orientation: Differential scanning fluorimetry follows unfolding on heating by fluorescence.

Assay [1] deals with T1, BMP2KA (Homo sapiens, UniProt Q9NSY1).
T1 construct: purchased in-house DSF panel (SGC-style construct names; the trailing A/B is a construct suffix)
Here is the method: (§1) Excitation and emission filters […]
(§2) curve. […] Measurements were
(§3) Kinobeads selectivity profiling of PROTACs
(§4) (Multiplexion, Heidelberg, Germany).
(§5) The cell lysate was ultracentrifuged and diluted
(§6) NaF, 1 mM DTT, protease inhibitors and phosphatase inhibitors to a final concentration of 5 mg/ml as determined by Bradford assay. For selectivity profiling of compounds the cell lysate (2.5 mg of total proteins per pulldown) was pre-incubated with increasing compound […]
(§7) µM) for 45 min at 4 °C in an end-over-end shaker. Subsequently, lysates were incubated with Kinobeads epsilon (17 µL settled beads) for 30 min at 4 °C. To assess the degree of protein depletion from the lysates by Kinobeads, the flow-through of the DMSO control was recovered

Assay [2] addresses T2, BMPR2A (Homo sapiens, UniProt Q13873).
T2 construct: purchased in-house DSF panel (SGC-style construct names; the trailing A/B is a construct suffix)
T2 sequence (Q13873 27-1038): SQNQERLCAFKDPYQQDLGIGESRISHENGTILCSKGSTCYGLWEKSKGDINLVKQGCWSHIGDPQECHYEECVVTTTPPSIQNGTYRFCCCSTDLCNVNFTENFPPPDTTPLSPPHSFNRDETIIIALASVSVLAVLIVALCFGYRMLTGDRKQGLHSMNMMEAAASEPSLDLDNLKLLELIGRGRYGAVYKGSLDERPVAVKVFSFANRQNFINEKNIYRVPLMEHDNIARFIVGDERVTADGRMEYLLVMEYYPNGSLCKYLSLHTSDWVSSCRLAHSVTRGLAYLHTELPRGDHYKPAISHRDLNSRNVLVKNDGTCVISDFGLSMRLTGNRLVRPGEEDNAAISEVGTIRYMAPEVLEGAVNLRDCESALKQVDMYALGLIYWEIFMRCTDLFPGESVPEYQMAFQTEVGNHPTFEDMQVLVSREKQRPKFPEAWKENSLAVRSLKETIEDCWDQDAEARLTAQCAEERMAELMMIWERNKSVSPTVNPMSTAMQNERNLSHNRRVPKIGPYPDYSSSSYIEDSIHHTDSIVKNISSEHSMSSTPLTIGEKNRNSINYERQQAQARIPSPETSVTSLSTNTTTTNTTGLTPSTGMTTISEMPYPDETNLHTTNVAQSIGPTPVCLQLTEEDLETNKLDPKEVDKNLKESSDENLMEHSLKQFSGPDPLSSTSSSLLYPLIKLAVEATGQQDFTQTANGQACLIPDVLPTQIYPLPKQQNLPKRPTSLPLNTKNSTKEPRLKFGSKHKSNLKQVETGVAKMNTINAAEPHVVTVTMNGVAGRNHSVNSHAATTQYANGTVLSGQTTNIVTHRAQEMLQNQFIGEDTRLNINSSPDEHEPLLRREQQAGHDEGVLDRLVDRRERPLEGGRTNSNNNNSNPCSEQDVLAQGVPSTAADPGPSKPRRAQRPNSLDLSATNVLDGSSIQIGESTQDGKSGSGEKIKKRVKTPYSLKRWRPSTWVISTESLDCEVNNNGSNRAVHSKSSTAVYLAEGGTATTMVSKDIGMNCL
How it is done: as §1, §2, §3, §4, §5, §6, §7

Assay [3] addresses T3, BRD4 (Homo sapiens, UniProt O60885).
T3 construct: purchased in-house DSF panel (SGC-style construct names; the trailing A/B is a construct suffix)
Here is the method: as §1, §2, §3, §4, §5, §6, §7

Assay [4] deals with T4, CAMK2DA (Homo sapiens, UniProt Q13557).
T4 construct: purchased in-house DSF panel (SGC-style construct names; the trailing A/B is a construct suffix)
Here is the method: as §1, §2, §3, §4, §5, §6, §7

Assay [5] deals with CDC42BPAA. How it is done:
as §1, §2, §3, §4, §5, §6, §7

Assay [6] has as its target T5, CLK3A (Homo sapiens, UniProt P49761).
T5 construct: purchased in-house DSF panel (SGC-style construct names; the trailing A/B is a construct suffix)
How it is done:
as §1, §2, §3, §4, §5, §6, §7

Assay [7] concerns the target T6, CSNK1DA (Homo sapiens, UniProt P48730).
T6 construct: purchased in-house DSF panel (SGC-style construct names; the trailing A/B is a construct suffix)
T6 sequence (P48730 1-294): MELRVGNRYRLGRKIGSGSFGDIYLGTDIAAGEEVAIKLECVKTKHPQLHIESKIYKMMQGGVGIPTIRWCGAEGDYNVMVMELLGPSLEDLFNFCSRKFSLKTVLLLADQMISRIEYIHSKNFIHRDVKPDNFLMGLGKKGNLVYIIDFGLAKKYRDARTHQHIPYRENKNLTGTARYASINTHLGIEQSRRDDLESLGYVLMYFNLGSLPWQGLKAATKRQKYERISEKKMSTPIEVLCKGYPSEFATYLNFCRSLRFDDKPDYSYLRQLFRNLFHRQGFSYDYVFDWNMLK
How it is done:
as §1, §2, §3, §4, §5, §6, §7

In assay [8] the target is T7, DAPK3A (Homo sapiens, UniProt O43293).
T7 construct: purchased in-house DSF panel (SGC-style construct names; the trailing A/B is a construct suffix)
How it is done: as §1, §2, §3, §4, §5, §6, §7

Assay [9] concerns the target T8, EPHA5A (Homo sapiens, UniProt P54756).
T8 construct: purchased in-house DSF panel (SGC-style construct names; the trailing A/B is a construct suffix)
T8 sequence (P54756 653-939): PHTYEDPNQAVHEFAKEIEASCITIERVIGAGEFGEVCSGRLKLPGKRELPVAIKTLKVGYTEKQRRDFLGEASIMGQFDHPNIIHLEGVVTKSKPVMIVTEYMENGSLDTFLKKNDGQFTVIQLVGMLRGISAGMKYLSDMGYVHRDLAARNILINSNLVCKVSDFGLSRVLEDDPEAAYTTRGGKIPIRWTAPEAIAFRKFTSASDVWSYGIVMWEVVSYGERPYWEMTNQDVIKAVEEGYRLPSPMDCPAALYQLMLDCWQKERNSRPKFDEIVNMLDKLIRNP
How it is done:
as §1, §2, §3, §4, §5, §6, §7

Assay [10] concerns the target T9, FGFR3A (Homo sapiens, UniProt P22607).
T9 construct: purchased in-house DSF panel (SGC-style construct names; the trailing A/B is a construct suffix)
How it is done:
as §1, §2, §3, §4, §5, §6, §7

Assay [11] addresses T10, MAP2K1A (Homo sapiens, UniProt Q02750).
T10 construct: purchased in-house DSF panel (SGC-style construct names; the trailing A/B is a construct suffix)
How it is done:
as §1, §2, §3, §4, §5, §6, §7

Assay [12] concerns the target T11, MARK3A (Homo sapiens, UniProt P27448).
T11 construct: purchased in-house DSF panel (SGC-style construct names; the trailing A/B is a construct suffix)
Here is the method:
as §1, §2, §3, §4, §5, §6, §7

The target in assay [13] is T12, NEK2A (Homo sapiens, UniProt P51955).
T12 construct: purchased in-house DSF panel (SGC-style construct names; the trailing A/B is a construct suffix)
T12 sequence (P51955 1-271): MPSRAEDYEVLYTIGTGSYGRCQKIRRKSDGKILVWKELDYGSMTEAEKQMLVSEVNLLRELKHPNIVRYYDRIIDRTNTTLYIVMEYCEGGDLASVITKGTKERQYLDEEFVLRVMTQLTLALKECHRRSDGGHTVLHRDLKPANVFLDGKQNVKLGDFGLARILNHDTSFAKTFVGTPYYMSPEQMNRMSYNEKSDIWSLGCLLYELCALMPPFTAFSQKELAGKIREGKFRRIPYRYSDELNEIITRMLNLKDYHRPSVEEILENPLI
How it is done: as §1, §2, §3, §4, §5, §6, §7

Assay [14] has as its target T13, PIM1A (Homo sapiens, UniProt P11309).
T13 construct: purchased in-house DSF panel (SGC-style construct names; the trailing A/B is a construct suffix)
Here is the method:
as §1, §2, §3, §4, §5, §6, §7

In assay [15] the target is T14, SRPK1 (Homo sapiens, UniProt Q96SB4).
T14 construct: purchased in-house DSF panel (SGC-style construct names; the trailing A/B is a construct suffix)
Here is the method: as §1, §2, §3, §4, §5, §6, §7

T1 sequence (Q9NSY1 38-345): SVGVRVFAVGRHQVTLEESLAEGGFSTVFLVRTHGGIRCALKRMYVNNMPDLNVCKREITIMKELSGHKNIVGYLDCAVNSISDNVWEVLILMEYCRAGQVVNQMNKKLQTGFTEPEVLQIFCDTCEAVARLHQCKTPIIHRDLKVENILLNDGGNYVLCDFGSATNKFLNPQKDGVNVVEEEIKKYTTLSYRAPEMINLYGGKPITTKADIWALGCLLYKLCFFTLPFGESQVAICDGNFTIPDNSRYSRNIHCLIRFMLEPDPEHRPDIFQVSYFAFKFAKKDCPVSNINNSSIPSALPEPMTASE
T5 sequence (P49761 127-484): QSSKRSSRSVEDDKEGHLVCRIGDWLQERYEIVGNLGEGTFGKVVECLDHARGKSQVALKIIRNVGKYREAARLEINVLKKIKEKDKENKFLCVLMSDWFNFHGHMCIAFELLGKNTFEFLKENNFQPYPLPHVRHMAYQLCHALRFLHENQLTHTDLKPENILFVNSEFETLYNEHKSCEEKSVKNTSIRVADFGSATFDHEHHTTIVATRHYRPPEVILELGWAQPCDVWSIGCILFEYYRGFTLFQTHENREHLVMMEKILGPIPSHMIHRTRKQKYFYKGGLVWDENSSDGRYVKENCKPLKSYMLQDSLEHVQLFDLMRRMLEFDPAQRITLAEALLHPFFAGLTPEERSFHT
T14 sequence (Q96SB4 whole entry): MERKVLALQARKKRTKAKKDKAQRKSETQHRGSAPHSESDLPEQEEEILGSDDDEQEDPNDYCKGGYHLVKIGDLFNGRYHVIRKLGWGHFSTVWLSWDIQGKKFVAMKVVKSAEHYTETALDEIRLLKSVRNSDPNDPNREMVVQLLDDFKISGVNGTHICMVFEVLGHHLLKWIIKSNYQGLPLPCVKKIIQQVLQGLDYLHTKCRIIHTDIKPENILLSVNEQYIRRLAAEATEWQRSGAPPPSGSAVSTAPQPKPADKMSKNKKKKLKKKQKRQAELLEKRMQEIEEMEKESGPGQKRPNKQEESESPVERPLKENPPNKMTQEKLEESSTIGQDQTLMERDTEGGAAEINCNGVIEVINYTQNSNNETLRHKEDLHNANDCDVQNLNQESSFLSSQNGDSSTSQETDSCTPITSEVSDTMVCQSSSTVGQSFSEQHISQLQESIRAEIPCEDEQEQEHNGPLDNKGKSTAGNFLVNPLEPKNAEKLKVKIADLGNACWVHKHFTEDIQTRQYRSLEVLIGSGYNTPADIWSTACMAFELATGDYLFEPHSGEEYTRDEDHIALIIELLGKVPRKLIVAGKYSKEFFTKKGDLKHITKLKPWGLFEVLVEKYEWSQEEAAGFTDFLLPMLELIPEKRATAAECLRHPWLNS
T11 sequence (P27448 56-307): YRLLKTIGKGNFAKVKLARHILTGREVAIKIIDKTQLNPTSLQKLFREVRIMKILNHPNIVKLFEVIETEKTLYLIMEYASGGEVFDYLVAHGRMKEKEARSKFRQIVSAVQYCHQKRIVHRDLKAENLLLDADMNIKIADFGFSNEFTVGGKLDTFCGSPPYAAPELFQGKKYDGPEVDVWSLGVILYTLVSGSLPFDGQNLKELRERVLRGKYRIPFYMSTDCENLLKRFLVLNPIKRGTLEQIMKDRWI
T7 sequence (O43293 9-289): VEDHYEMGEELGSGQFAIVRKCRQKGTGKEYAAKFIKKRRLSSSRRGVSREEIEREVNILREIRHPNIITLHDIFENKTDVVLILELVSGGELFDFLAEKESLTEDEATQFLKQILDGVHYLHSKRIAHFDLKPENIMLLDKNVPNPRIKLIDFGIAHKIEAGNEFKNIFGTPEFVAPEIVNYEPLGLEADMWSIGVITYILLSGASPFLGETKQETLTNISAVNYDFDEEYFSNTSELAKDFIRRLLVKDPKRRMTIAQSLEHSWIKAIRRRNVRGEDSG
T10 sequence (Q02750 62-393): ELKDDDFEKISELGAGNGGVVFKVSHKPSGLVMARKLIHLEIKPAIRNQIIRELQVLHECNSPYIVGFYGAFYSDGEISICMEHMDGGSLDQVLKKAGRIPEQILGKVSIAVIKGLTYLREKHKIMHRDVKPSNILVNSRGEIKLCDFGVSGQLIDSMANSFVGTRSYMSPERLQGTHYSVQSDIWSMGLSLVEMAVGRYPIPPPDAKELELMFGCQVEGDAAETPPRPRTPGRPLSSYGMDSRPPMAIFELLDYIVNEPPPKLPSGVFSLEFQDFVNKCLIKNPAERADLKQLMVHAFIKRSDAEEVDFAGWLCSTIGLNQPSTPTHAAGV
T4 sequence (Q13557 11-309): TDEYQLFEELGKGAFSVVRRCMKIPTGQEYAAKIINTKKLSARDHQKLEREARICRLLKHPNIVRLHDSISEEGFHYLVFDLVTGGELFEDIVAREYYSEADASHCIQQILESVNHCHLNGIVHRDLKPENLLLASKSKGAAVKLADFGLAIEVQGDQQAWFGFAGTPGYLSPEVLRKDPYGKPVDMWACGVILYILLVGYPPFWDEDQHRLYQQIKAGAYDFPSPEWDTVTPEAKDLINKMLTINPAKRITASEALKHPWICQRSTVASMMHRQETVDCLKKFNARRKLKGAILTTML
T13 sequence (P11309 whole entry): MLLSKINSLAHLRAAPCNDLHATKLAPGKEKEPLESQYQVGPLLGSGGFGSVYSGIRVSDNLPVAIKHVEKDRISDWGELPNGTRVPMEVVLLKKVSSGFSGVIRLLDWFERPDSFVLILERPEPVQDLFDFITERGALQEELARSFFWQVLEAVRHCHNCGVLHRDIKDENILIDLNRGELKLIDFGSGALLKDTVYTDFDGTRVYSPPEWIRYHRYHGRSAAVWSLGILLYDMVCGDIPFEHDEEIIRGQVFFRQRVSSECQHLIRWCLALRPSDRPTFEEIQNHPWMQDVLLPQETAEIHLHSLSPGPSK
T9 sequence (P22607 455-768): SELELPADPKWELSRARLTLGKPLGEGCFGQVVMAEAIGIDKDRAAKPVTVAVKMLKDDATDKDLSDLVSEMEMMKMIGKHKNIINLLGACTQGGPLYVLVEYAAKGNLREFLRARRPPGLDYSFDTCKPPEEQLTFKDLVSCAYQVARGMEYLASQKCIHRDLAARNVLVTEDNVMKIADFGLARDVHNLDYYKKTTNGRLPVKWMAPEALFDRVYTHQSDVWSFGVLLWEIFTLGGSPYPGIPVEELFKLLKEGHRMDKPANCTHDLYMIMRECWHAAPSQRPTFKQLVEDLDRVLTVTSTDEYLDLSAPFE

One may read the ΔTm as the change in melting temperature against a reference sample. Turning to `CC(C)(C)OC(=O)NCCCOCCOCCOCCCNC(=O)c1cc(Nc2cc(C3CC3)[nH]n2)nc(Nc2ccc(CC#N)cc2)n1` [5-L], the ΔTm at 20 µM in assay [1] was 17.7 °C; in [2], 7.29 °C; in [3], -0.79 °C; in assay [4], 3.75 °C; in [6] it was 9.33 °C; in assay [7], 5.43 °C. Further, the ΔTm at 20 µM in assay [8] was found to be 7.97 °C; in assay [9] it was 4.95 °C; in assay [10], 7 °C; in assay [11], 1.17 °C; in assay [12], 3.97 °C; in assay [13], 0.77 °C. In addition, the ΔTm at 20 µM in assay [14] was -1.48 °C; in assay [15] it was 2.8 °C. Further, the ΔTm in [5] is -3.72 °C.

Regarding `CCOC(=O)c1cc(Nc2cc(C3CC3)[nH]n2)nc(Nc2ccc(CC#N)cc2)n1` [compound 5], the ΔTm at 20 µM in assay [1] was 18 °C; in assay [2], 7.28 °C; in assay [3], 1.16 °C; in assay [4] it was 3.37 °C; in assay [6], 9.57 °C; in assay [7], 2.62 °C. Further, the ΔTm at 20 µM in [8] turned out to be 10.6 °C; in assay [9], 5.7 °C; in [10], 8.45 °C; in assay [11] it was 1.56 °C; in [12], 5.37 °C; in [13], 2.25 °C. Moreover, the ΔTm at 20 µM in assay [14] was -0.9 °C; in assay [15], 4.31 °C. The ΔTm in assay [5] is -2.55 °C.

As for `CC(C)(C)OC(=O)NCCOCCOCCOCCOCCC(=O)N1CCN(c2cc(Nc3cc(C4CC4)[nH]n3)nc(Nc3ccc(CC#N)cc3)n2)CC1` [4-L], the ΔTm at 20 µM in [1] stood at 21.5 °C; in assay [2], 9.02 °C; in [3], 0.18 °C; in [4], 2.15 °C; in assay [6], 6.42 °C; in assay [7], 3.01 °C. Moreover, the ΔTm at 20 µM is 7.59 °C in assay [8]; 7.97 °C in [9]; 11.4 °C in assay [10]; 1.66 °C in assay [11]; 5.32 °C in assay [12]; 2.97 °C in assay [13]. Also, the figures for the ΔTm at 20 µM in assay [14] and in assay [15] were -0.76 °C and 0.76 °C, respectively. Moreover, the ΔTm in assay [5] was -2.71 °C.

(Values after publication PMC11851430, “Workflow for E3 Ligase Ligand Validation for PROTAC Development” (ACS Chemical Biology, 2025).)
